Reference: patent publication US20160106102A1, “KNOWN AND NEW HETEROCYCLIC COMPOUNDS AS PEST CONTROL AGENTS” (BAYER CROPSCIENCE AKTIENGESELLSCHAFT, priority 2013, published 2016)

Legend:
[1] = log P determination by LC-MS in the acidic range; format: physicochemical
Text: The LC-MS determination in the acidic range is effected at pH 2.7 using 0.1% aqueous formic acid and acetonitrile (contains 0.1% formic acid) as eluents, linear gradient from 10% acetonitrile to 95% acetonitrile. Alternatively, the determination is effected in the acidic range at pH 2.3 using 0.1% aqueous phosphoric acid and acetonitrile as eluents; linear gradient from 10% acetonitrile to 95% acetonitrile.

[2] = system: Myzus persicae; assay: Myzus persicae - sachet test; format: in vivo; details: 100% = all animals killed
Summary of the method: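 Green peach aphids feed through a sealed sachet on nutrient medium containing the water-diluted formulation (solvents: 2% N-methylpyrrolidone, 2% diacetone alcohol). Percent mortality read after the chosen time; 100% means all animals killed.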

[3] = application rate of 30 ppm in nutrient medium
[4] = application rate of 6 ppm in nutrient medium
[5] = Table 4, HPLC on reversed-phase column (C 18), 55° C., acidic range (pH 2.7 or pH 2.3)
[6] = Table 3, HPLC on reversed-phase column (C 18), 55° C., acidic range (pH 2.7 or pH 2.3)
[7] = Table 2, compounds of the formula (I-2), acidic range pH 2.7 or pH 2.3

Cc1cc(NC(=O)c2cccnc2)nn1Cc1ccc(Cl)c(Cl)n1 [Compound I-1-301]
log P (acid) ([1]; LC-MS in the acidic range): 2.06
efficacy (kill in %) [2, 3]: 100%

Cc1cc(NC(=O)c2cccnc2)nn1C(=O)NCCS(C)(=O)=O [Compound I-1-309]
log P (acid) ([1]; LC-MS in the acidic range): 0.97
efficacy (kill in %) [2, 4]: 100%
efficacy (kill in %) [2, 3]: 100%

Cc1cc(NC(=O)c2cccnc2)nn1C(=O)NCc1cccc(Cl)c1 [Compound I-1-324]
log P (acid) ([1]; LC-MS in the acidic range): 2.39
efficacy (kill in %) [2, 4]: 100%
efficacy (kill in %) [2, 3]: 100%

Cc1cc(NC(=O)c2cccnc2)nn1CN1CCS/C1=N/C#N [Compound I-1-142]
log P (acid) ([1]; LC-MS in the acidic range): 1.08
efficacy (kill in %) [2, 4]: 100%
efficacy (kill in %) [2, 3]: 100%

Cc1cc(NC(=O)c2cccnc2)nn1C(=O)NC(C)C(F)(F)F (stereo not shown) [Compound I-1-307]
log P (acid) ([1]; LC-MS in the acidic range): 1.89
efficacy (kill in %) [2, 4]: 100%
efficacy (kill in %) [2, 3]: 100%

O=C(Nc1nnn(Cc2ccc(Cl)nc2)n1)c1cccnc1 [Compound I-4-3]
log P (acid) [1, 5]: 1.05
efficacy (kill in %) [2, 4]: 100%
efficacy (kill in %) [2, 3]: 100%

Cc1cc(NC(=O)c2cccnc2)nn1C(=O)NCc1ccccc1F [Compound I-1-326]
log P (acid) ([1]; LC-MS in the acidic range): 2.04
efficacy (kill in %) [2, 4]: 100%
efficacy (kill in %) [2, 3]: 100%

Cc1cc(NC(=O)c2cccnc2)nn1Cc1csc(C(F)(F)F)n1 [Compound I-1-302]
log P (acid) ([1]; LC-MS in the acidic range): 1.93
efficacy (kill in %) [2, 4]: 100%
efficacy (kill in %) [2, 3]: 100%

Cc1cc(NC(=O)c2cccnc2)nn1C=C(F)c1ccc(Cl)cn1 [Compound I-1-306]
log P (acid) ([1]; LC-MS in the acidic range): 2.31
efficacy (kill in %) [2, 3]: 100%

Cc1cc(NC(=O)c2ccnnc2)nn1-c1ccccn1 [Compound I-1-249]
log P (acid) ([1]; LC-MS in the acidic range): 1.83
efficacy (kill in %) [2, 3]: 100%

CCNC(=O)n1nc(NC(=O)c2cccnc2)cc1C [Compound I-1-288]
log P (acid) ([1]; LC-MS in the acidic range): 1.24
efficacy (kill in %) [2, 4]: 100%
efficacy (kill in %) [2, 3]: 100%

O=C(Nc1ccn(Cc2cc(F)ccc2F)n1)c1cccnc1 [Compound I-1-90]
log P (acid) ([1]; LC-MS in the acidic range): 1.65
efficacy (kill in %) [2, 4]: 100%
efficacy (kill in %) [2, 3]: 100%

Cc1cc(NC(=O)c2cccnc2)nn1C(=O)NCc1ccc(Cl)cc1 [Compound I-1-325]
log P (acid) ([1]; LC-MS in the acidic range): 2.34
efficacy (kill in %) [2, 4]: 100%
efficacy (kill in %) [2, 3]: 100%

Cc1cc(NC(=O)c2cccnc2)nn1-c1ccc(Cl)cc1Cl [Compound I-1-207]
log P (acid) ([1]; LC-MS in the acidic range): 2.36
efficacy (kill in %) [2, 4]: 100%
efficacy (kill in %) [2, 3]: 100%

O=C(Nc1cnn(-c2ncccc2Cl)n1)c1cccnc1 [Compound I-3-16]
log P (acid) [1, 6]: 1.32
efficacy (kill in %) [2, 3]: 100%

CCc1nc(NC(=O)c2cccnc2)nn1C [Compound I-2-17]
log P (acid) [1, 7]: 0.01
efficacy (kill in %) [2, 3]: 100%

O=C(Nc1ccn(Cc2cccc(C(F)(F)F)c2)n1)c1ccc(Cl)nc1 [Compound I-1-87]
log P (acid) ([1]; LC-MS in the acidic range): 2.82
efficacy (kill in %) [2, 3]: 100%

Cc1cc(NC(=O)c2cccnc2)nn1C(C)(C)C#N [Compound I-1-219]
log P (acid) ([1]; LC-MS in the acidic range): 1.31
efficacy (kill in %) [2, 4]: 100%
efficacy (kill in %) [2, 3]: 100%

Cc1cc(NC(=O)c2cccnc2)nn1C(=O)NCCOc1ccccc1 [Compound I-1-168]
log P (acid) ([1]; LC-MS in the acidic range): 2.18
efficacy (kill in %) [2, 4]: 100%
efficacy (kill in %) [2, 3]: 100%

Cc1cc(NC(=O)c2cccnc2)nn1C(=O)NCCOc1c(F)cccc1F [Compound I-1-171]
log P (acid) ([1]; LC-MS in the acidic range): 2.21
efficacy (kill in %) [2, 4]: 80%
efficacy (kill in %) [2, 3]: 100%

Cc1ccc(C(=O)Nc2cc(C)n(Cc3ccccc3)n2)cn1 [Compound I-1-80]
log P (acid) ([1]; LC-MS in the acidic range): 1.71
efficacy (kill in %) [2, 4]: 80%
efficacy (kill in %) [2, 3]: 100%

O=C(Nc1cc(Cl)n(Cc2ncccn2)n1)c1cccnc1 [Compound I-1-197]
log P (acid) ([1]; LC-MS in the acidic range): 1.04
efficacy (kill in %) [2, 4]: 100%
efficacy (kill in %) [2, 3]: 100%

C=CCn1nnc(NC(=O)c2cccnc2)n1 [Compound I-4-8]
log P (acid) [1, 5]: 0.60
efficacy (kill in %) [2, 4]: 100%
efficacy (kill in %) [2, 3]: 100%

COc1ccc(C(=O)Nc2cc(C)n(Cc3ccccc3)n2)cn1 [Compound I-1-104]
log P (acid) ([1]; LC-MS in the acidic range): 2.43
efficacy (kill in %) [2, 4]: 80%
efficacy (kill in %) [2, 3]: 80%

Cc1cc(NC(=O)c2cccnc2)nn1S(=O)(=O)N1CCC(C)CC1 [Compound I-1-162]
log P (acid) ([1]; LC-MS in the acidic range): 2.51
efficacy (kill in %) [2, 4]: 100%
efficacy (kill in %) [2, 3]: 100%

Cc1cc(NC(=O)c2ccc(Cl)nc2)nn1Cc1ccc(F)cc1 [Compound I-1-95]
log P (acid) ([1]; LC-MS in the acidic range): 2.57
efficacy (kill in %) [2, 3]: 100%

O=C(Nc1ccn(Cc2cccc(C(F)(F)F)c2)n1)c1cccnc1 [Compound I-1-71]
log P (acid) ([1]; LC-MS in the acidic range): 2.07
efficacy (kill in %) [2, 3]: 100%

CC(=O)n1nc(NC(=O)c2cccnc2)cc1C [Compound I-1-120]
log P (acid) ([1]; LC-MS in the acidic range): 1.18
efficacy (kill in %) [2, 4]: 100%
efficacy (kill in %) [2, 3]: 100%

Cc1cc(C)nc(-n2nc(NC(=O)c3cccnc3)cc2C)n1 [Compound I-1-139]
log P (acid) ([1]; LC-MS in the acidic range): 1.6
efficacy (kill in %) [2, 4]: 100%
efficacy (kill in %) [2, 3]: 100%

Cc1cc(NC(=O)c2cccnc2)nn1C(=O)NCc1ccc(F)cc1 [Compound I-1-328]
log P (acid) ([1]; LC-MS in the acidic range): 2.12
efficacy (kill in %) [2, 4]: 100%
efficacy (kill in %) [2, 3]: 100%

Cc1cc(NC(=O)c2cccnc2)nn1C(=O)NC(C)c1ccc(F)cc1 (stereo not shown) [Compound I-1-332]
log P (acid) ([1]; LC-MS in the acidic range): 2.28
efficacy (kill in %) [2, 4]: 100%
efficacy (kill in %) [2, 3]: 100%

Cc1cc(NC(=O)c2cccnc2)nn1Cc1ccc2nsnc2c1 [Compound I-1-339]
log P (acid) ([1]; LC-MS in the acidic range): 1.61
efficacy (kill in %) [2, 3]: 100%

Cc1cc(NC(=O)c2cccnc2)nn1Cc1ccc2c(c1)CCCC2 [Compound I-1-158]
log P (acid) ([1]; LC-MS in the acidic range): 2.73
efficacy (kill in %) [2, 3]: 100%

O=C(Nc1ccn(Cc2ccccc2F)n1)c1cccnc1 [Compound I-1-88]
log P (acid) ([1]; LC-MS in the acidic range): 1.58
efficacy (kill in %) [2, 4]: 100%
efficacy (kill in %) [2, 3]: 100%

CCc1nc(NC(=O)c2cccnc2)nn1-c1ccccc1 [Compound I-2-6]
log P (acid) [1, 7]: 1.24
efficacy (kill in %) [2, 3]: 100%

COc1ccc(Cn2ccc(NC(=O)c3cccnc3)n2)cc1 [Compound I-1-78]
log P (acid) ([1]; LC-MS in the acidic range): 1.55
efficacy (kill in %) [2, 3]: 100%

O=C(Nc1cnn(-c2ncc(C(F)(F)F)cc2Cl)n1)c1cccnc1 [Compound I-3-5]
log P (acid) [1, 6]: 2.12
efficacy (kill in %) [2, 3]: 100%

N#Cc1ccccc1Cn1ccc(NC(=O)c2cccnc2)n1 [Compound I-1-89]
log P (acid) ([1]; LC-MS in the acidic range): 1.37
efficacy (kill in %) [2, 4]: 100%
efficacy (kill in %) [2, 3]: 100%

CSc1c(C#N)c(NC(=O)c2cccnc2)nn1C [Compound I-1-270]
log P (acid) ([1]; LC-MS in the acidic range): 0.96
efficacy (kill in %) [2, 3]: 80%

Cc1cc(NC(=O)c2cccnc2)nn1C(=O)NCc1ncccn1 [Compound I-1-334]
log P (acid) ([1]; LC-MS in the acidic range): 0.95
efficacy (kill in %) [2, 4]: 100%
efficacy (kill in %) [2, 3]: 100%

Cc1cccc(Cn2ccc(NC(=O)c3cccnc3)n2)c1 [Compound I-1-72]
log P (acid) ([1]; LC-MS in the acidic range): 1.83
efficacy (kill in %) [2, 4]: 100%
efficacy (kill in %) [2, 3]: 100%

Cc1ccc(C(=O)Nc2cc(C)n(Cc3cccc(F)c3)n2)cn1 [Compound I-1-108]
log P (acid) ([1]; LC-MS in the acidic range): 1.79
efficacy (kill in %) [2, 3]: 100%

O=C(Nc1cnn(-c2ncccc2Br)n1)c1cccnc1 [Compound I-3-7]
log P (acid) [1, 6]: 1.33
efficacy (kill in %) [2, 4]: 80%
efficacy (kill in %) [2, 3]: 100%

Cc1cc(NC(=O)c2cccnc2)nn1C(=O)NCc1ccccc1 [Compound I-1-322]
log P (acid) ([1]; LC-MS in the acidic range): 1.97
efficacy (kill in %) [2, 4]: 100%
efficacy (kill in %) [2, 3]: 100%

CSc1nc(NC(=O)c2cccnc2)nn1C [Compound I-2-26]
log P (acid) [1, 7]: 0.32
efficacy (kill in %) [2, 3]: 100%

O=C(Nc1cc(C2CC2)n(Cc2ccc(Cl)nc2)n1)c1cccnc1 [Compound I-1-29]
log P (acid) ([1]; LC-MS in the acidic range): 1.77
efficacy (kill in %) [2, 4]: 100%
efficacy (kill in %) [2, 3]: 100%

COC(=O)c1cc(NC(=O)c2cccnc2)nn1C [Compound I-1-138]
log P (acid) ([1]; LC-MS in the acidic range): 1.05
efficacy (kill in %) [2, 3]: 100%

Cc1cc(NC(=O)c2cnc(Cl)c(Cl)c2)nn1Cc1ccccc1 [Compound I-1-100]
log P (acid) ([1]; LC-MS in the acidic range): 3.18
efficacy (kill in %) [2, 3]: 100%

Cc1c(Br)c(NC(=O)c2cccnc2)nn1Cc1ncccn1 [Compound I-1-125]
log P (acid) ([1]; LC-MS in the acidic range): 0.98
efficacy (kill in %) [2, 3]: 100%

Cc1cc(NC(=O)c2cccnc2)nn1Cc1ccc2ccccc2n1 [Compound I-1-341]
log P (acid) ([1]; LC-MS in the acidic range): 1.66
efficacy (kill in %) [2, 4]: 100%
efficacy (kill in %) [2, 3]: 100%

CC(C)n1ncc(NC(=O)c2cccnc2)n1 [Compound I-3-10]
log P (acid) [1, 6]: 1.09
efficacy (kill in %) [2, 3]: 100%

Cc1nn(-c2ncccc2Cl)nc1NC(=O)c1cccnc1 [Compound I-3-9]
log P (acid) [1, 6]: 1.24
efficacy (kill in %) [2, 3]: 100%

O=C(Nc1cc(C2CC2)n(Cc2ccccc2)n1)c1cccnc1 [Compound I-1-56]
log P (acid) ([1]; LC-MS in the acidic range): 2.1
efficacy (kill in %) [2, 3]: 100%

Cc1cc(NC(=O)c2cncc(Cl)c2)nn1Cc1ncccn1 [Compound I-1-276]
log P (acid) ([1]; LC-MS in the acidic range): 1.4
efficacy (kill in %) [2, 4]: 100%
efficacy (kill in %) [2, 3]: 100%

Cc1cc(NC(=O)c2cccnc2)nn1CC1COc2ccccc2O1 (stereo not shown) [Compound I-1-157]
log P (acid) ([1]; LC-MS in the acidic range): 1.99
efficacy (kill in %) [2, 3]: 100%
